From ChEMBL document CHEMBL3612049, “Design, synthesis and molecular docking of salicylic acid derivatives containing metronidazole as a new class of antimicrobial agents” (Bioorg Med Chem, 2015)
In brackets after ≈: the same amount, converted by molar mass.

Columns and labels:
Bacillus spizizenii = experiment: Antimicrobial activity against Bacillus subtilis ATCC 6633 after 18 hrs by broth microdilution method; type: functional; details: ATCC 6633, 18 h
Staphylococcus aureus = experiment: Antimicrobial activity against Staphylococcus aureus ATCC 6538 after 18 hrs by broth microdilution method; type: functional; details: ATCC 6538, 18 h
Escherichia coli = experiment: Antimicrobial activity against Escherichia coli ATCC 35218 after 18 hrs by broth microdilution method; type: functional; details: ATCC 35218, 18 h
Pseudomonas aeruginosa = experiment: Antimicrobial activity against Pseudomonas aeruginosa ATCC 13525 after 18 hrs by broth microdilution method; type: functional; details: ATCC 13525, 18 h
[1] = Inhibition of Staphylococcus aureus TyrRS expressed in Escherichia coli BL21 using L-[ring-3,5-3H]-tyrosine preincubated for 10 mins by liquid scintillation counting
[2] = Hemolytic activity in human erythrocytes assessed as hemoglobin release after 3 hrs by spectrophotometric analysis; type: ADME, cell-based, Erythrocyte; details: read-out: LC50
[3] = Cytotoxicity against human macrophages after 24 hrs by MTT assay; type: cell-based, Macrophage

| SMILES | MIC (Bacillus spizizenii) | MIC (Staphylococcus aureus) | MIC (Escherichia coli) | MIC (Pseudomonas aeruginosa) | IC50 [1] | HC50 at 3 h [2] | CC50 at 24 h [3] |
| --- | --- | --- | --- | --- | --- | --- | --- |
| Cc1ncc([N+](=O)[O-])n1CCOC(=O)c1ccccc1OCc1ccccc1 | 12.5 µg/mL (≈ 32.8 µM) | 12.5 µg/mL (≈ 32.8 µM) | 25 µg/mL (≈ 65.6 µM) | 50 µg/mL (≈ 131 µM) | 5.6 µM | > 10 µM | 231 µM |
| Cc1ncc([N+](=O)[O-])n1CCOC(=O)c1ccccc1OCc1ccccc1F | 25 µg/mL (≈ 62.6 µM) | 12.5 µg/mL (≈ 31.3 µM) | 50 µg/mL (≈ 125 µM) | 50 µg/mL (≈ 125 µM) | 6.7 µM | > 10 µM | 155 µM |
| Cc1ncc([N+](=O)[O-])n1CCOC(=O)c1ccccc1OCc1cccc(F)c1 | 25 µg/mL (≈ 62.6 µM) | 12.5 µg/mL (≈ 31.3 µM) | 50 µg/mL (≈ 125 µM) | 50 µg/mL (≈ 125 µM) | 6.3 µM | > 10 µM | 124 µM |
| Cc1ncc([N+](=O)[O-])n1CCOC(=O)c1ccccc1OCc1ccc(F)cc1 | 12.5 µg/mL (≈ 31.3 µM) | 12.5 µg/mL (≈ 31.3 µM) | 25 µg/mL (≈ 62.6 µM) | 25 µg/mL (≈ 62.6 µM) | 5.7 µM | > 10 µM | 157 µM |
| Cc1ncc([N+](=O)[O-])n1CCOC(=O)c1ccccc1OCc1ccccc1Cl | 6.25 µg/mL (≈ 15 µM) | 6.25 µg/mL (≈ 15 µM) | 6.25 µg/mL (≈ 15 µM) | 12.5 µg/mL (≈ 30.1 µM) | 4.7 µM | > 10 µM | 213 µM |
| Cc1ncc([N+](=O)[O-])n1CCOC(=O)c1ccccc1OCc1cccc(Cl)c1 | 6.25 µg/mL (≈ 15 µM) | 6.25 µg/mL (≈ 15 µM) | 12.5 µg/mL (≈ 30.1 µM) | 12.5 µg/mL (≈ 30.1 µM) | 5 µM | > 10 µM | 188 µM |
| Cc1ncc([N+](=O)[O-])n1CCOC(=O)c1ccccc1OCc1ccc(Cl)cc1 | 12.5 µg/mL (≈ 30.1 µM) | 6.25 µg/mL (≈ 15 µM) | 25 µg/mL (≈ 60.1 µM) | 12.5 µg/mL (≈ 30.1 µM) | 4.8 µM | > 10 µM | 168 µM |
| Cc1ncc([N+](=O)[O-])n1CCOC(=O)c1ccccc1OCc1ccc(Br)cc1 | 6.25 µg/mL (≈ 13.6 µM) | 6.25 µg/mL (≈ 13.6 µM) | 12.5 µg/mL (≈ 27.2 µM) | 12.5 µg/mL (≈ 27.2 µM) | 4.9 µM | > 10 µM | 198 µM |
| Cc1ccc(COc2ccccc2C(=O)OCCn2c([N+](=O)[O-])cnc2C)cc1 | 3.13 µg/mL (≈ 7.92 µM) | 3.13 µg/mL (≈ 7.92 µM) | 12.5 µg/mL (≈ 31.6 µM) | 12.5 µg/mL (≈ 31.6 µM) | 4.7 µM | > 10 µM | 140 µM |
| Cc1cc(C)cc(COc2ccccc2C(=O)OCCn2c([N+](=O)[O-])cnc2C)c1 | 1.57 µg/mL (≈ 3.83 µM) | 3.13 µg/mL (≈ 7.64 µM) | 6.25 µg/mL (≈ 15.3 µM) | 12.5 µg/mL (≈ 30.5 µM) | 3 µM | > 10 µM | 252 µM |
| Cc1ncc([N+](=O)[O-])n1CCOC(=O)c1ccccc1OCc1ccc(C(C)C)cc1 | 3.13 µg/mL (≈ 7.39 µM) | 3.13 µg/mL (≈ 7.39 µM) | 6.25 µg/mL (≈ 14.8 µM) | 6.25 µg/mL (≈ 14.8 µM) | 3.3 µM | > 10 µM | 272 µM |
| COc1ccc(COc2ccccc2C(=O)OCCn2c([N+](=O)[O-])cnc2C)cc1 | 0.78 µg/mL (≈ 1.9 µM) | 1.57 µg/mL (≈ 3.82 µM) | 6.25 µg/mL (≈ 15.2 µM) | 6.25 µg/mL (≈ 15.2 µM) | 2.9 µM | > 10 µM | 239 µM |
| Cc1ncc([N+](=O)[O-])n1CCOC(=O)c1ccccc1OCc1ccccc1C(F)(F)F | 50 µg/mL (≈ 111 µM) | 100 µg/mL (≈ 223 µM) | 100 µg/mL (≈ 223 µM) | 100 µg/mL (≈ 223 µM) | 7.8 µM | > 10 µM | 233 µM |
| Cc1ncc([N+](=O)[O-])n1CCOC(=O)c1ccccc1OCc1cccc(C(F)(F)F)c1 | 100 µg/mL (≈ 223 µM) | 50 µg/mL (≈ 111 µM) | 100 µg/mL (≈ 223 µM) | 100 µg/mL (≈ 223 µM) | 8.3 µM | > 10 µM | 251 µM |
| Cc1ncc([N+](=O)[O-])n1CCOC(=O)c1ccccc1OCc1ccc(C(F)(F)F)cc1 | 25 µg/mL (≈ 55.6 µM) | 25 µg/mL (≈ 55.6 µM) | 50 µg/mL (≈ 111 µM) | 50 µg/mL (≈ 111 µM) | 6.3 µM | > 10 µM | 242 µM |
| Cc1ncc([N+](=O)[O-])n1CCOC(=O)c1ccccc1OCc1c(F)cccc1F | 25 µg/mL (≈ 59.9 µM) | 25 µg/mL (≈ 59.9 µM) | 50 µg/mL (≈ 120 µM) | 50 µg/mL (≈ 120 µM) | 6.9 µM | > 10 µM | 277 µM |
| Cc1ncc([N+](=O)[O-])n1CCOC(=O)c1ccccc1OCc1ccc(F)c(F)c1 | 50 µg/mL (≈ 120 µM) | 25 µg/mL (≈ 59.9 µM) | 100 µg/mL (≈ 240 µM) | 100 µg/mL (≈ 240 µM) | 6 µM | > 10 µM | 256 µM |
| Cc1ncc([N+](=O)[O-])n1CCOC(=O)c1ccccc1OCc1ccc(Cl)c(Cl)c1 | 0.78 µg/mL (≈ 1.73 µM) | 0.39 µg/mL (≈ 0.866 µM) | 3.13 µg/mL (≈ 6.95 µM) | 1.57 µg/mL (≈ 3.49 µM) | 2.3 µM | > 10 µM | 188 µM |
| Cc1ncc([N+](=O)[O-])n1CCOC(=O)c1ccccc1OCc1cc(Cl)ccc1Cl | 0.78 µg/mL (≈ 1.73 µM) | 1.57 µg/mL (≈ 3.49 µM) | 3.13 µg/mL (≈ 6.95 µM) | 6.25 µg/mL (≈ 13.9 µM) | 2.7 µM | > 10 µM | 193 µM |
| Cc1ncc([N+](=O)[O-])n1CCOC(=O)c1ccccc1OCc1ccc(Cl)c(F)c1 | 3.13 µg/mL (≈ 7.21 µM) | 3.13 µg/mL (≈ 7.21 µM) | 6.25 µg/mL (≈ 14.4 µM) | 6.25 µg/mL (≈ 14.4 µM) | 3.2 µM | > 10 µM | 180 µM |
| Cc1ncc([N+](=O)[O-])n1CCOC(=O)c1ccccc1OCc1cccc(Cl)c1F | 1.57 µg/mL (≈ 3.62 µM) | 3.13 µg/mL (≈ 7.21 µM) | 12.5 µg/mL (≈ 28.8 µM) | 6.25 µg/mL (≈ 14.4 µM) | 2.9 µM | > 10 µM | 190 µM |
| Cc1ncc([N+](=O)[O-])n1CCOC(=O)c1ccccc1OCc1cc(F)c(F)c(F)c1 | 25 µg/mL (≈ 57.4 µM) | 25 µg/mL (≈ 57.4 µM) | 100 µg/mL (≈ 230 µM) | 50 µg/mL (≈ 115 µM) | 6.7 µM | > 10 µM | 267 µM |
| Cc1ncc([N+](=O)[O-])n1CCOC(=O)c1ccccc1OCc1c(F)c(F)c(F)c(F)c1F | 50 µg/mL (≈ 106 µM) | 50 µg/mL (≈ 106 µM) | 100 µg/mL (≈ 212 µM) | 100 µg/mL (≈ 212 µM) | 8 µM | > 10 µM | 236 µM |
| O=C(N[C@H](CO)[C@H](O)c1ccc([N+](=O)[O-])cc1)C(Cl)Cl [CHLORAMPHENICOL] | 1.57 µg/mL (≈ 4.86 µM) | 1.57 µg/mL (≈ 4.86 µM) | 6.25 µg/mL (≈ 19.3 µM) | 0.78 µg/mL (≈ 2.41 µM) |  |  |  |
| CC1(C)S[C@@H]2[C@H](NC(=O)Cc3ccccc3)C(=O)N2[C@H]1C(=O)O [PENICILLIN G] | 0.78 µg/mL (≈ 2.33 µM) | 0.78 µg/mL (≈ 2.33 µM) | 6.25 µg/mL (≈ 18.7 µM) | 6.25 µg/mL (≈ 18.7 µM) |  |  |  |
